From ChEMBL document CHEMBL4411296, “Design and development of Isatin-triazole hydrazones as potential inhibitors of microtubule affinity-regulating kinase 4 for the therapeutic management of cell proliferation and metastasis” (Eur J Med Chem, 2019)

What was measured:
Assay type in all cases: functional
HCC 2998 = assay: Growth inhibition of human HCC2998 cells assessed as cell growth at 10 uM after 48 hrs by sulforhodamine B assay relative to control; details: HCC 2998, 48 h, read-out: Activity
NCI-H226 = assay: Growth inhibition of human NCI-H226 cells assessed as cell growth at 10 uM after 48 hrs by sulforhodamine B assay relative to control; details: NCI-H226, 48 h, read-out: Activity
UO-31 = assay: Growth inhibition of human UO31 cells assessed as cell growth at 10 uM after 48 hrs by sulforhodamine B assay relative to control; details: UO-31, 48 h, read-out: Activity
BT-549 = assay: Growth inhibition of human BT549 cells assessed as cell growth at 10 uM after 48 hrs by sulforhodamine B assay relative to control; details: BT-549, 48 h, read-out: Activity
NCI-H322M = assay: Growth inhibition of human NCI-H322M cells assessed as cell growth at 10 uM after 48 hrs by sulforhodamine B assay relative to control; details: read-out: Activity
HOP-62 = assay: Growth inhibition of human HOP62 cells assessed as cell growth at 10 uM after 48 hrs by sulforhodamine B assay relative to control; details: HOP-62, 48 h, read-out: Activity
DU-145 = assay: Growth inhibition of human DU145 cells assessed as cell growth at 10 uM after 48 hrs by sulforhodamine B assay relative to control; details: DU-145, 48 h, read-out: Activity
NCI/ADR-RES = assay: Growth inhibition of human NCI/ADR-RES cells assessed as cell growth at 10 uM after 48 hrs by sulforhodamine B assay relative to control; details: read-out: Activity
HT-29 = assay: Growth inhibition of human HT-29 cells assessed as cell growth at 10 uM after 48 hrs by sulforhodamine B assay relative to control; details: HT-29, 48 h, read-out: Activity
SNB-19 = assay: Growth inhibition of human SNB19 cells assessed as cell growth at 10 uM after 48 hrs by sulforhodamine B assay relative to control; details: SNB-19, 48 h, read-out: Activity
MCF7 = assay: Growth inhibition of human MCF7 cells assessed as cell growth at 10 uM after 48 hrs by sulforhodamine B assay relative to control; details: MCF7, 48 h, read-out: Activity
NCI-H23 = assay: Growth inhibition of human NCI-H23 cells assessed as cell growth at 10 uM after 48 hrs by sulforhodamine B assay relative to control; details: NCI-H23, 48 h, read-out: Activity
SK-OV-3 = assay: Growth inhibition of human SKOV3 cells assessed as cell growth at 10 uM after 48 hrs by sulforhodamine B assay relative to control; details: SK-OV-3, 48 h, read-out: Activity
MDA-MB-468 = assay: Growth inhibition of human MDA-MB-468 cells assessed as cell growth at 10 uM after 48 hrs by sulforhodamine B assay relative to control; details: MDA-MB-468, 48 h, read-out: Activity
PC-3 = assay: Growth inhibition of human PC3 cells assessed as cell growth at 10 uM after 48 hrs by sulforhodamine B assay relative to control; details: PC-3, 48 h, read-out: Activity
SNB-75 = assay: Growth inhibition of human SNB75 cells assessed as cell growth at 10 uM after 48 hrs by sulforhodamine B assay relative to control; details: SNB-75, 48 h, read-out: Activity
COLO 205 = assay: Growth inhibition of human COLO205 cells assessed as cell growth at 10 uM after 48 hrs by sulforhodamine B assay relative to control; details: COLO 205, 48 h, read-out: Activity
M14 = assay: Growth inhibition of human M14 cells assessed as cell growth at 10 uM after 48 hrs by sulforhodamine B assay relative to control; details: M14, 48 h, read-out: Activity
MDA-MB-231 = assay: Growth inhibition of human MDA-MB-231 cells assessed as cell growth at 10 uM after 48 hrs by sulforhodamine B assay relative to control; details: MDA-MB-231, 48 h, read-out: Activity
MOLT-4 = assay: Growth inhibition of human MOLT4 cells assessed as cell growth at 10 uM after 48 hrs by sulforhodamine B assay relative to control; details: MOLT-4, 48 h, read-out: Activity
CCRF-CEM = assay: Growth inhibition of human CCRF-CEM cells assessed as cell growth at 10 uM after 48 hrs by sulforhodamine B assay relative to control; details: read-out: Activity
NCI-H522 = assay: Growth inhibition of human NCI-H522 cells assessed as cell growth at 10 uM after 48 hrs by sulforhodamine B assay relative to control; details: NCI-H522, 48 h, read-out: Activity
TK-10 = assay: Growth inhibition of human TK10 cells assessed as cell growth at 10 uM after 48 hrs by sulforhodamine B assay relative to control; details: TK-10, 48 h, read-out: Activity
HOP-92 = assay: Growth inhibition of human HOP92 cells assessed as cell growth at 10 uM after 48 hrs by sulforhodamine B assay relative to control; details: HOP-92, 48 h, read-out: Activity
EKVX = assay: Growth inhibition of human EKVX cells assessed as cell growth at 10 uM after 48 hrs by sulforhodamine B assay relative to control; details: read-out: Activity
IGROV-1 = assay: Growth inhibition of human IGROV1 cells assessed as cell growth at 10 uM after 48 hrs by sulforhodamine B assay relative to control; details: IGROV-1, 48 h, read-out: Activity
786-0 = assay: Growth inhibition of human 786-0 cells assessed as cell growth at 10 uM after 48 hrs by sulforhodamine B assay relative to control; details: 786-0, 48 h, read-out: Activity
ACHN = assay: Growth inhibition of human ACHN cells assessed as cell growth at 10 uM after 48 hrs by sulforhodamine B assay relative to control; details: read-out: Activity
RXF 393 = assay: Growth inhibition of human RXF393 cells assessed as cell growth at 10 uM after 48 hrs by sulforhodamine B assay relative to control; details: RXF 393, 48 h, read-out: Activity
Hs-578T = assay: Growth inhibition of human Hs 578T cells assessed as cell growth at 10 uM after 48 hrs by sulforhodamine B assay relative to control; details: read-out: Activity
SK-MEL-2 = assay: Growth inhibition of human SK-MEL-2 cells assessed as cell growth at 10 uM after 48 hrs by sulforhodamine B assay relative to control; details: SK-MEL-2, 48 h, read-out: Activity
SK-MEL-28 = assay: Growth inhibition of human SK-MEL-28 cells assessed as cell growth at 10 uM after 48 hrs by sulforhodamine B assay relative to control; details: SK-MEL-28, 48 h, read-out: Activity
T47D = assay: Growth inhibition of human T47D cells assessed as cell growth at 10 uM after 48 hrs by sulforhodamine B assay relative to control; details: read-out: Activity
U-251 = assay: Growth inhibition of human U251 cells assessed as cell growth at 10 uM after 48 hrs by sulforhodamine B assay relative to control; details: U-251, 48 h, read-out: Activity

Row | Structure (SMILES) | growth at 10 µM (HCC 2998) | growth at 10 µM (NCI-H226) | growth at 10 µM (UO-31) | growth at 10 µM (BT-549) | growth at 10 µM (NCI-H322M) | growth at 10 µM (HOP-62) | growth at 10 µM (DU-145) | growth at 10 µM (NCI/ADR-RES) | growth at 10 µM (HT-29) | growth at 10 µM (SNB-19) | growth at 10 µM (MCF7) | growth at 10 µM (NCI-H23) | growth at 10 µM (SK-OV-3) | growth at 10 µM (MDA-MB-468) | growth at 10 µM (PC-3) | growth at 10 µM (SNB-75) | growth at 10 µM (COLO 205) | growth at 10 µM (M14) | growth at 10 µM (MDA-MB-231) | growth at 10 µM (MOLT-4) | further results
1 | COc1ccc(Cn2cc(C(=O)N/N=C3/C(=O)Nc4c(Cl)cccc43)nn2)cc1 | 99.3% | 102% | 93.5% | 111% | 101% | 110% | 105% | 105% | 97% | 93.6% | 84.3% | 99.3% | 113% | 98.6% | 96.7% | 82% | 114% | 106% | 98.5% | 84.8% | growth at 10 µM (CCRF-CEM): 106%; growth at 10 µM (NCI-H522): 84%; growth at 10 µM (TK-10): 106%; growth at 10 µM (HOP-92): 105%; growth at 10 µM (EKVX): 102%; growth at 10 µM (IGROV-1): 103%; growth at 10 µM (786-0): 106%; growth at 10 µM (ACHN): 111%; growth at 10 µM (RXF 393): 109%; growth at 10 µM (Hs-578T): 97.5%; growth at 10 µM (SK-MEL-2): 93.2%; growth at 10 µM (SK-MEL-28): 115%; growth at 10 µM (T47D): 100%; growth at 10 µM (U-251): 102%
2 | COc1ccc(Cn2cc(C(=O)N/N=C3/C(=O)Nc4ccc(Cl)cc43)nn2)cc1 | 107% | 96.8% | 90.7% | 116% | 104% | 112% | 102% | 115% | 93.7% | 98.5% | 91.5% | 104% | 119% | 97.2% | 94.9% | 115% | 117% | 110% | 113% | 90.6% | growth at 10 µM (CCRF-CEM): 94.7%; growth at 10 µM (NCI-H522): 90.6%; growth at 10 µM (TK-10): 84.8%; growth at 10 µM (HOP-92): 116%; growth at 10 µM (EKVX): 106%; growth at 10 µM (IGROV-1): 106%; growth at 10 µM (786-0): 99.8%; growth at 10 µM (ACHN): 107%; growth at 10 µM (RXF 393): 103%; growth at 10 µM (Hs-578T): 112%; growth at 10 µM (SK-MEL-2): 99%; growth at 10 µM (SK-MEL-28): 113%; growth at 10 µM (T47D): 101%; growth at 10 µM (U-251): 107%
